In patent US20020071842A1, “Soluble CD1 compositions and uses thereof” (priority 2000, published 2002):

What was measured:
Test in all cases: Plate-bound mCD1d fusion protein hybridoma stimulation assay (IL-2 ELISA)
Assay type in all cases: cell-based, mouse
24.8.A hybridoma = settings: for IL-2 response to mCD1d fusion protein pre-treated with purified or synthetic lipid: 24.8.A hybridoma, compared to untreated or buffer treated fusion protein
Source text: (§1) The CD1d-restricted T cell clones 24.7, 24.8, 24.9 (NKT cell) and 14S.6, 14S.7, 14S.10, and 14S.15 (diverse TCRs) were all derived from spleen of wild type C57BL/6 mice, as described previously (Behar, S. M. et al., J. Immunol., 162:161-7 (1999)). To generate T cell hybridomas, the activated T cells were fused to the aminopterin-sensitive BW5147 αβTCR^− thymoma cell line using PEG1500, and hybrids were selected in HAT medium (Life Technologies, Gaithersburg, Md.). Resulting TT hybridomas were tested for recognition of RMA-S cells transfected with mCD1D1 compared to untransfected RMA-S cells, as described below. […] The hybridomas are distinguished from the original T cell clones by the addition of a letter to their names. The KT/7, KT/12, KT/22, and KT/23 and Vβ/9 NKT cell hybridomas were derived from NK1.1^+ T cells enriched from spleen of C57BL/6 mice by depletion of CD8+ T cells, naive T cells, and B cells by mAbs (anti-B220, CD8, and CD62L, or anti-CD8α, CD8β, and Me114) bound to magnetic microbeads, or to plastic. The purified cells were stimulated either by the anti-CD3 KT3 mAb (KT/7, KT/12, KT/22, KT/23), or by an anti-Vβ8.2 mAb (Vβ/9), and addition of IL-2 or IL-2 and IL-7. After 4-5 days of culture the cells were fused with BW5147 thymoma cells. The VII68, VIII24, XVI9, and XV104 diverse TCR hybridomas were generated from CD4^+ T cells from class 110 mice, as described previously (Cardell, S. et al., J. Exp. Med., 182:993-1004 (1995)). The DN32D3 hybridoma was derived as described (Lantz, O., and Bendelac, A., J. Exp. Med., 180:1097-106 (1994).
(§2) To test for recognition of the mCD1d fusion protein and purified or synthetic antigens, 96 well protein A coated plates (Pierce Chemical Company) were incubated with 400-600 ng/well of the fusion protein or a negative control IgG2a antibody, RPC5.4 or UPC10, in PBS, at pH 7.2. Lipid antigens were diluted into PBS and added where specified at the indicated molar ratio of antigen to fusion protein, (when not specified the ratio was 40:1). Protein A plates containing the fusion protein and antigen were incubated 24-48 hr at 37° C., then washed three times with 200 μl/well sterile PBS, pH 7.2, and two times with 200 μl/well sterile culture medium (containing RPMI supplemented with L-glutamine and penicillin/streptomycin, Life Technologies, Gaithersburg, Md., and 10% bovine calf serum, Hyclone Laboratories, Logan, Utah). For assays in which the PI was phospholipase treated, it was first diluted into 0.01M Tris, 0.15M NaCl, pH 7.5, containing 0.25 U PI-specific phospholipase C or 0.5 U phospholipase D (Sigma, St Louis, Mo.), and incubated 30 minutes at room temperature, then added to the protein A plates as described above. For assays in which the pH was varied during antigen incubation with the fusion protein, the fusion protein and α-GalCer were diluted into a 20 mM citrate/phosphate buffer of the specified pH, which contained 0.15 M NaCl, and after incubation, the samples were neutralized by addition of 1M Tris, pH 7.5. Hybridoma cells were added to fusion protein/antigen treated plates at a concentration of 1×10^5 cells/well, in a total volume of 150 μl/well. Assays were performed using 2-6 replicate wells. In some assays, an anti-mCD1d blocking antibody (19G11) was included at a final concentration of 20 μg/ml. The plates were incubated at 37° C. for 16-20 hr, and culture supernatants were withdrawn for analysis. Each experiment was performed at least three times.
(§3) IL-2 secreted in the hybridoma stimulation assays was quantitated in a double antibody sandwich ELISA, by comparison to a standard curve of purified murine IL-2 (Pharmingen, San Diego, Calif.). Hybridoma plate stimulation supernatants (used either neat or diluted) and serially diluted IL-2 standards were added to 96 well ELISA plates coated with a rat anti-mouse IL-2 capture antibody (Pharmingen).

14S.15.A hybridoma = settings: 14S.15.A diverse TCR hybridoma; plate-bound mCD1d-IgGFc2a fusion protein preincubated with lipid antigen
Source text: as §1, §2
as §3, with “(Pharmingen). […]” for “(Pharmingen).”

14S.6.A hybridoma = settings: 14S.6.A diverse TCR hybridoma; plate-bound mCD1d-IgGFc2a fusion protein preincubated with lipid antigen
Source text: as §1, §2
as §3, with “(Pharmingen). […]” for “(Pharmingen).”

14S.7.N hybridoma = settings: 14S.7.N diverse TCR hybridoma; plate-bound mCD1d-IgGFc2a fusion protein preincubated with lipid antigen
Source text: as §1, §2
as §3, with “(Pharmingen). […]” for “(Pharmingen).”

24.7.C hybridoma = settings: 24 7.C NKT hybridoma; plate-bound mCD1d-IgGFc2a fusion protein preincubated with lipid antigen
Source text: as §1, §2
as §3, with “(Pharmingen). […]” for “(Pharmingen).”

24.9.E hybridoma = settings: 24.9 E NKT hybridoma; plate-bound mCD1d-IgGFc2a fusion protein preincubated with lipid antigen
Source text: as §1, §2
as §3, with “(Pharmingen). […]” for “(Pharmingen).”

DN32D3 hybridoma = settings: DN32D3 NKT hybridoma; plate-bound mCD1d-IgGFc2a fusion protein preincubated with lipid antigen
Source text: as §1, §2
as §3, with “(Pharmingen). […]” for “(Pharmingen).”

KT/12 hybridoma = settings: KT/12 NKT hybridoma; plate-bound mCD1d-IgGFc2a fusion protein preincubated with lipid antigen
Source text: as §1, §2
as §3, with “(Pharmingen). […]” for “(Pharmingen).”

KT/22 hybridoma = settings: KT/22 NKT hybridoma; plate-bound mCD1d-IgGFc2a fusion protein preincubated with lipid antigen
Source text: as §1, §2
as §3, with “(Pharmingen). […]” for “(Pharmingen).”

KT/23 hybridoma = settings: KT/23 NKT hybridoma; plate-bound mCD1d-IgGFc2a fusion protein preincubated with lipid antigen
Source text: as §1, §2
as §3, with “(Pharmingen). […]” for “(Pharmingen).”

KT/7 hybridoma = settings: KT/7 NKT hybridoma; plate-bound mCD1d-IgGFc2a fusion protein preincubated with lipid antigen
Source text: as §1, §2
as §3, with “(Pharmingen). […]” for “(Pharmingen).”

VII68 hybridoma = settings: VII68 diverse TCR hybridoma; plate-bound mCD1d-IgGFc2a fusion protein preincubated with lipid antigen
Source text: as §1, §2
as §3, with “(Pharmingen). […]” for “(Pharmingen).”

VIII24 hybridoma = settings: VIII24 diverse TCR hybridoma; plate-bound mCD1d-IgGFc2a fusion protein preincubated with lipid antigen
Source text: as §1, §2
as §3, with “(Pharmingen). […]” for “(Pharmingen).”

Vβ/9 hybridoma = settings: Vβ/9 NKT hybridoma; plate-bound mCD1d-IgGFc2a fusion protein preincubated with lipid antigen
Source text: as §1, §2
as §3, with “(Pharmingen). […]” for “(Pharmingen).”

XV104 hybridoma = settings: XV104 diverse TCR hybridoma; plate-bound mCD1d-IgGFc2a fusion protein preincubated with lipid antigen
Source text: as §1, §2
as §3, with “(Pharmingen). […]” for “(Pharmingen).”

XV19 hybridoma = settings: XV19 diverse TCR hybridoma; plate-bound mCD1d-IgGFc2a fusion protein preincubated with lipid antigen
Source text: as §1, §2
as §3, with “(Pharmingen). […]” for “(Pharmingen).”

Compound	IL-2 response to mCD1d fusion protein pre-treated with purified or synthetic lipid (24.8.A hybridoma)	IL-2 secretion (24.8.A hybridoma; 24.8 A NKT hybridoma, plate-bound mCD1d-IgGFc2a fusion protein preincubated with lipid antigen)	IL-2 secretion (14S.15.A hybridoma)	IL-2 secretion (14S.6.A hybridoma)	IL-2 secretion (14S.7.N hybridoma)	IL-2 secretion (24.7.C hybridoma)	IL-2 secretion (24.9.E hybridoma)	IL-2 secretion (DN32D3 hybridoma)	IL-2 secretion (KT/12 hybridoma)	IL-2 secretion (KT/22 hybridoma)	IL-2 secretion (KT/23 hybridoma)	IL-2 secretion (KT/7 hybridoma)	IL-2 secretion (VII68 hybridoma)	IL-2 secretion (VIII24 hybridoma)	IL-2 secretion (Vβ/9 hybridoma)	IL-2 secretion (XV104 hybridoma)	IL-2 secretion (XV19 hybridoma)
CCCCCCCCCCCCCCCC(=O)OCC(COP(=O)(O)O)OC(=O)CCCCCCCCCCCCCCC (stereo not drawn) [PA, phosphatidic acid]	little or no stimulation	+ (“+” indicates 50-250 pg/ml)	0 (A “0” indicates a mean of less than 50 pg/ml IL-2 was secreted)	0 (A “0” indicates a mean of less than 50 pg/ml IL-2 was secreted)	0 (A “0” indicates a mean of less than 50 pg/ml IL-2 was secreted)	0 (A “0” indicates a mean of less than 50 pg/ml IL-2 was secreted)	0 (A “0” indicates a mean of less than 50 pg/ml IL-2 was secreted)	0 (A “0” indicates a mean of less than 50 pg/ml IL-2 was secreted)	0 (A “0” indicates a mean of less than 50 pg/ml IL-2 was secreted)	0 (A “0” indicates a mean of less than 50 pg/ml IL-2 was secreted)	0 (A “0” indicates a mean of less than 50 pg/ml IL-2 was secreted)	0 (A “0” indicates a mean of less than 50 pg/ml IL-2 was secreted)	0 (A “0” indicates a mean of less than 50 pg/ml IL-2 was secreted)	0 (A “0” indicates a mean of less than 50 pg/ml IL-2 was secreted)	0 (A “0” indicates a mean of less than 50 pg/ml IL-2 was secreted)	0 (A “0” indicates a mean of less than 50 pg/ml IL-2 was secreted)	0 (A “0” indicates a mean of less than 50 pg/ml IL-2 was secreted)
O[C@H]1[C@H](O)[C@@H](O)[C@H](O)[C@@H](O)[C@H]1O [inositol]	little or no stimulation																
CCCCCCCCCCCCCCCC(=O)O [palmitate, Palmitic acid]	little or no stimulation																
diacyl glyceride [DAG]	little or no stimulation		0 (A “0” indicates a mean of less than 50 pg/ml IL-2 was secreted)	0 (A “0” indicates a mean of less than 50 pg/ml IL-2 was secreted)	0 (A “0” indicates a mean of less than 50 pg/ml IL-2 was secreted)	0 (A “0” indicates a mean of less than 50 pg/ml IL-2 was secreted)	0 (A “0” indicates a mean of less than 50 pg/ml IL-2 was secreted)	0 (A “0” indicates a mean of less than 50 pg/ml IL-2 was secreted)	0 (A “0” indicates a mean of less than 50 pg/ml IL-2 was secreted)	0 (A “0” indicates a mean of less than 50 pg/ml IL-2 was secreted)	0 (A “0” indicates a mean of less than 50 pg/ml IL-2 was secreted)	0 (A “0” indicates a mean of less than 50 pg/ml IL-2 was secreted)	0 (A “0” indicates a mean of less than 50 pg/ml IL-2 was secreted)	0 (A “0” indicates a mean of less than 50 pg/ml IL-2 was secreted)	0 (A “0” indicates a mean of less than 50 pg/ml IL-2 was secreted)	0 (A “0” indicates a mean of less than 50 pg/ml IL-2 was secreted)	0 (A “0” indicates a mean of less than 50 pg/ml IL-2 was secreted)
phosphatidylethanolamine [PE]	dose dependent responses		0 (A “0” indicates a mean of less than 50 pg/ml IL-2 was secreted)	+ (“+” indicates 50-250 pg/ml)	0 (A “0” indicates a mean of less than 50 pg/ml IL-2 was secreted)	0 (A “0” indicates a mean of less than 50 pg/ml IL-2 was secreted)	0 (A “0” indicates a mean of less than 50 pg/ml IL-2 was secreted)	0 (A “0” indicates a mean of less than 50 pg/ml IL-2 was secreted)									
